Values of other authors in patent US10441593B2, “Treatment of pain associated with dislocation of endometrium” (PREGLEM S.A., priority 2010, dated 2019).

How the values were obtained:
[1] = tested on: liver enzyme; details: clinical development program; 12.5 mg, 25 mg and 50 mg; cited from earlier work
[2] = tested on: endometriosis; details: cited from earlier work

COCC(=O)[C@@]1(OC(C)=O)CC[C@H]2[C@@H]3CCC4=CC(=O)CCC4=C3[C@@H](c3ccc(N(C)C)cc3)C[C@@]21C [Proellex]
liver enzyme (sign of liver toxicity, DILI) [1]: dose related increase in liver enzyme | days of pain compared with baseline ([2]; 50 mg group, end of the first months of therapy): statistically significant reduction in days of pain | dose response in treatment of endometriosis ([2]; 6 month study): clearly support a dose response
